# From US7803801B2, “Aminopyridine compounds having Syk inhibitory activity” (Japan Tobacco, Inc., priority 2005, dated 2010)
# Structures can show the parent of a compound that is named as a salt. Where two headings read alike, the source gives them in different places.
# Tests used:
# [1] = test system: cultured human mast cells; experiment: Degranulation inhibition test using cultured human mast cells (IgE cross-linking, β-Hexosaminidase release); format: cell-based; details: cultured human mast cells, read-out: human degranulation ave. IC50
# Procedure, shortened: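 Degranulation was triggered by anti-hIgE (10 μg/mL final, 30 min, 37 °C) after a 10-min compound pretreatment (DMSO 0.1%) of cord-blood CD34+-derived mast cells primed 5 days with IL-4 and IgE. β-Hexosaminidase in supernatant was measured with p-nitrophenyl-GlcNAc substrate (A405), expressed against water-lysed total; IC50 (M).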
# [2] = target: GST-Syk Full Protein (human) (Homo sapiens, UniProt P43405); experiment: Syk kinase inhibition test (HTRF method); format: biochemical
# Procedure, shortened: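 HTRF read-out: after EDTA termination and 1 h with XL665-streptavidin and Eu-anti-phosphotyrosine, the 665/620 nm ratio was measured. The reaction ran 30 min at 20–25 °C with final 6.4 nM human GST-Syk, 250 nM biotinylated peptide, 100 μM ATP, pH 7.0 HEPES buffer, 2% DMSO.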
# [3] = Mast cell, Tables 1-x, compounds A
# [4] = Tables 1-x, compounds A, read-out: sykHTRF ave IC50
# [5] = Mast cell, anti-hIgE stimulation, β-Hexosaminidase index, average
# [6] = HTRF, 100 μM ATP, 30 min room temperature, average, read-out: sykHTRF ave IC50
# [7] = Mast cell, Tables 2-x, thiophene compounds B
# [8] = Tables 2-x, thiophene compounds B, read-out: sykHTRK ave IC50
"IC50 [1, 5] [nM]","IC50 [2, 6] [nM]",Compound,other results
100 to 1000,100 to 1000,Cc1ccnc(Nc2cccc(-c3cnc(CN4C(=O)CCCC4=O)s3)n2)c1 [Compound A-350],–
100 to 1000,100 to 1000,Cc1ccnc(Nc2cccc(-c3cnc(CN(C)C(=O)C4CC4)s3)n2)c1 [Compound A-358],–
100 to 1000,< 100,"CC(=O)N(C)c1ncc(-c2cccc(Nc3cc(C)ccn3)n2)s1 [Compound A-424, N-methyl-N-{5-[6-(4-methylpyridin-2-ylamino)pyridin-2-yl]thiazol-2-yl}acetamide]",–
100 to 1000,100 to 1000,Cc1ccnc(Nc2cccc(-c3cnc(C4CCN(C(=O)N(C)C)CC4)s3)n2)c1 [Compound A-371],–
100 to 1000,< 100,"Cc1ccnc(Nc2cccc(-c3cnc([C@H]4CC[C@H](C(=O)N5CCC(NS(C)(=O)=O)C5)CC4)s3)n2)c1 (stereo partly drawn) [Compound A-312, N-[1-(trans-4-{5-[6-(4-methylpyridin-2-ylamino)pyridin-2-yl]thiazol-2-yl]cyclohexanecarbonyl)pyrrolidin-3-yl}methanesulfonamide]",–
> 1000,100 to 1000,Cc1ccnc(Nc2cccc(-c3cnc(CCC4CCN(C(=O)C5CCC(=O)CC5)CC4)s3)n2)c1 [Compound A-293],–

# The next lines start with the compound.
Compound,"IC50 [1, 5] [nM]","IC50 [2, 6] [nM]",other results
"CC(=O)c1ccnc(Nc2cccc(-c3cnc(N4CC[C@@H](O)C4)s3)n2)c1 [Compound A-549, 1-(2-{6-[2-((R)-3-hydroxypyrrolidin-1-yl)thiazol-5-yl]pyridin-2-ylamino}pyridin-4-yl)ethanone]",–,–,"IC50 [1, 3]: 100 to 1000 nM; IC50 [2, 4]: < 100 nM"
Cc1ccnc(Nc2cccc(-c3cnc([C@H]4CC[C@H](C(=O)N5C[C@H](O)C[C@@H](O)C5)CC4)s3)n2)c1 [Compound A-226],100 to 1000,100 to 1000,–
Cc1ccnc(Nc2cccc(-c3ccc(C(=O)NC4CC4)s3)n2)c1 [Compound B-104],–,–,"IC50 [1, 7]: > 1000 nM; IC50 [2, 8]: 100 to 1000 nM"
Cc1ccnc(Nc2cccc(-c3cnc([C@H](COCc4ccccc4)NC(=O)OC(C)(C)C)s3)n2)c1 [Compound A-43],> 1000,> 1000,–
Cc1ccnc(Nc2cccc(-c3cnc([C@H](C)NC(=O)CC(=O)O)s3)n2)c1 [Compound A-123],> 1000,100 to 1000,–
Cc1ccnc(Nc2cccc(-c3cnc(C4CCCC(C(=O)N5CCC(O)CC5)C4)s3)n2)c1 (centres unmarked) [Compound A-271],–,100 to 1000,"IC50 ([1]; anti-hIgE stimulation, β-Hexosaminidase index, average): 100 to 1000 nM"
"Cc1ccnc(Nc2cccc(-c3cnc(N4CCC(C(=O)NCCO)CC4)s3)n2)c1 [Compound A-5, N-(2-hydroxyethyl)-1-{5-[6-(4-methylpyridin-2-ylamino)pyridin-2-yl]thiazol-2-yl}piperidine-4-carboxamide]",100 to 1000,< 100,–
"Cc1ccnc(Nc2cccc(-c3cnc(N4CCc5c(cccc5C(=O)O)C4)s3)n2)c1 [Compound A-582, 2-{5-[6-(4-methylpyridin-2-ylamino)pyridin-2-yl]thiazol-2-yl}-1,2,3,4-tetrahydroisoquinoline-5-carboxylic acid]",–,–,"IC50 [1, 3]: > 1000 nM; IC50 [2, 4]: < 100 nM"
"CC(=O)N[C@H]1CC[C@H](c2ncc(-c3cccc(Nc4cc(C)ccn4)n3)s2)CC1 [Compound A-202, N-(trans-4-{5-[6-(4-methylpyridin-2-ylamino)pyridin-2-yl]thiazol-2-yl}cyclohexyl)acetamide]",> 1000,< 100,–
Cc1ccnc(Nc2cccc(-c3cnc(N4CCN(C(=O)OC(C)(C)C)CC4)s3)n2)c1 [Compound A-403],–,–,"IC50 [1, 3]: > 1000 nM; IC50 [2, 4]: > 1000 nM"
"COc1ccnc(Nc2cccc(-c3cnc(N4CCOCC4)s3)n2)c1 [Compound A-422, N-(4-methoxypyridin-2-yl)-N-{6-[2-(morpholin-4-yl)thiazol-5-yl]pyridin-2-yl}amine]",–,–,"IC50 [1, 3]: 100 to 1000 nM; IC50 [2, 4]: < 100 nM"
"Cc1ccnc(Nc2cccc(-c3cnc(CCC4CCN(C(=O)CO)CC4)s3)n2)c1 [Compound A-263, 2-hydroxy-1-[4-(2-{5-[6-(4-methylpyridin-2-ylamino)pyridin-2-yl]thiazol-2-yl}ethyl)piperidin-1-yl]ethanone]",100 to 1000,< 100,–
Cc1ccnc(Nc2cccc(-c3cncs3)n2)c1 [Compound A-24],> 1000,100 to 1000,–
CC(=O)O[C@@H]1C[C@@H](c2ncc(-c3cccc(Nc4cc(C)ccn4)n3)s2)N(C(C)=O)C1 [Compound A-93],> 1000,100 to 1000,–
"Cc1ccnc(Nc2cccc(-c3sc(N4CCC(C(N)=O)CC4)nc3C)n2)c1 [Compound A-429, 1-{4-methyl-5-[6-(4-methylpyridin-2-ylamino)pyridin-2-yl]thiazol-2-yl}piperidine-4-carboxamide]",–,–,"IC50 [1, 3]: > 1000 nM; IC50 [2, 4]: < 100 nM"
"Cc1ccnc(Nc2cccc(-c3cnc(CCc4ccc(NC(=O)CO)cc4)s3)n2)c1 [Compound A-237, 2-hydroxy-N-[4-(2-{5-[6-(4-methylpyridin-2-ylamino)pyridin-2-yl]thiazol-2-yl}ethyl)phenyl]acetamide]",100 to 1000,< 100,–
"Cc1ccnc(Nc2cccc(-c3cnc(N(C)CCc4ccc(C(=O)O)cc4)s3)n2)c1 [Compound A-593, 4-[2-(N-methyl-N-{5-[6-(4-methylpyridin-2-ylamino)pyridin-2-yl]thiazol-2-yl}amino)ethyl]benzoic acid dihydrochloride]",–,–,"IC50 [1, 3]: 100 to 1000 nM; IC50 [2, 4]: < 100 nM"
OCc1ccnc(Nc2cccc(-c3cccs3)n2)c1 [Compound B-94],–,–,"IC50 [1, 7]: 100 to 1000 nM; IC50 [2, 8]: 100 to 1000 nM"
"Cc1ccnc(Nc2cccc(-c3cnc(N(C)CCO)s3)n2)c1 [Compound A-519, 2-(N-methyl-N-{5-[6-(4-methylpyridin-2-ylamino)pyridin-2-yl]thiazol-2-yl}amino)ethanol]",–,–,"IC50 [1, 3]: < 100 nM; IC50 [2, 4]: < 100 nM"
"CC(=NO)c1ncc(-c2cccc(Nc3cc(C)ccn3)n2)s1 [Compound A-30, 1-{5-[6-(4-methylpyridin-2-ylamino)pyridin-2-yl]thiazol-2-yl}ethanone oxime]",100 to 1000,< 100,–
CC(=O)N(CCC(=O)O)Cc1ncc(-c2cccc(Nc3cc(C)ccn3)n2)s1 [Compound A-181],> 1000,100 to 1000,–
Cc1ccnc(Nc2cccc(-c3cnc([C@H]4CC[C@H](C(=O)N5CCCCC5)CC4)s3)n2)c1 [Compound A-274],> 1000,100 to 1000,–
Cc1ccnc(Nc2cccc(-c3cnc(C4=NCCC4)s3)n2)c1 [Compound A-110],100 to 1000,100 to 1000,–
"Cc1ccnc(Nc2cccc(-c3cnc(N(C)[C@H]4CN[C@H](C(=O)O)C4)s3)n2)c1 [Compound A-579, (2S,4R)-4-(N-methyl-N-{5-[6-(4-methylpyridin-2-ylamino)pyridin-2-yl]thiazol-2-yl}amino)pyrrolidine-2-carboxylic acid]",–,–,"IC50 [1, 3]: > 1000 nM; IC50 [2, 4]: < 100 nM"
Cc1ccnc(Nc2cccc(-c3cnc(CCCC(=O)O)s3)n2)c1 [Compound A-131],> 1000,100 to 1000,–
Cc1ccnc(Nc2cccc(-c3ccc(NC(=O)[C@H](C)O)s3)n2)c1 [Compound B-35],–,–,"IC50 [1, 7]: 100 to 1000 nM; IC50 [2, 8]: 100 to 1000 nM"
"Cc1ccnc(Nc2cccc(-c3cnc(N4CCC[C@H]4C(N)=O)s3)n2)c1 [Compound A-528, (S)-1-{5-[6-(4-methylpyridin-2-ylamino)pyridin-2-yl]thiazol-2-yl}pyrrolidine-2-carboxamide]",–,–,"IC50 [1, 3]: < 100 nM; IC50 [2, 4]: < 100 nM"
COC(=O)N1CCC(c2ncc(-c3cccc(Nc4cc(C)ccn4)n3)s2)CC1 [Compound A-170],100 to 1000,100 to 1000,–
